In patent US5202315A, “Cephalosporin compounds” (Lucky, Ltd., priority 1989, dated 1993):
≈ marks a conversion by molar mass, not a printed value.

Tests used:
Assay in all cases: Antibacterial activity, MIC
Assay type in all cases: cell-based
[1] = test system: Acinetobacter calcoaceticus ATCC 15473; details: ATCC15473, ATCC 15473, agar two-fold dilution, 37° C., 20 hours, read-out: MIC
Procedure, shortened: (§1)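 MIC by two-fold serial dilution in Mueller-Hinton agar; inoculum 2 μl at 10^7 CFU/ml; 37 °C, 20 h.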

[2] = test system: Bacillus cereus ATCC 11778; details: ATCC11778, ATCC 11778, agar two-fold dilution, 37° C., 20 hours, read-out: MIC
Procedure, shortened: as §1

[3] = test system: Bacillus megaterium ATCC 9885; details: Priestia megaterium, ATCC9885; ATCC 9885; agar two-fold dilution, 37° C., 20 hours; read-out: MIC
Procedure, shortened: as §1

[4] = test system: Citrobacter freundii ATCC 8090; details: ATCC8090, ATCC 8090, agar two-fold dilution, 37° C., 20 hours, read-out: MIC
Procedure, shortened: as §1

[5] = test system: Enterobacter aerogenes ATCC 29751; details: Klebsiella aerogenes, ATCC29751; ATCC 29751; agar two-fold dilution, 37° C., 20 hours; read-out: MIC
Procedure, shortened: as §1

[6] = test system: Enterobacter cloacae ATCC 27508; details: ATCC27508, ATCC 27508, agar two-fold dilution, 37° C., 20 hours, read-out: MIC
Procedure, shortened: as §1

[7] = test system: Escherichia coli ATCC 10536; details: ATCC10536, agar two-fold dilution, 37° C., 20 hours
Procedure, shortened: as §1

[8] = test system: Escherichia coli ATCC 25922; details: ATCC25922, agar two-fold dilution, 37° C., 20 hours
Procedure, shortened: as §1

[9] = test system: Klebsiella pneumoniae ATCC 10031; details: ATCC10031, ATCC 10031, agar two-fold dilution, 37° C., 20 hours, read-out: MIC
Procedure, shortened: as §1

[10] = test system: Micrococcus luteus ATCC 9341; details: ATCC9341, ATCC 9341, agar two-fold dilution, 37° C., 20 hours, read-out: MIC
Procedure, shortened: as §1

[11] = test system: Morganella morganii ATCC 8076h; details: ATCC8076H, agar two-fold dilution, 37° C., 20 hours
Procedure, shortened: as §1

[12] = test system: Proteus mirabilis ATCC 25933; details: ATCC25933, ATCC 25933, agar two-fold dilution, 37° C., 20 hours, read-out: MIC
Procedure, shortened: as §1

[13] = test system: Proteus vulgaris ATCC 6059; details: ATCC6059, ATCC 6059, agar two-fold dilution, 37° C., 20 hours, read-out: MIC
Procedure, shortened: as §1

[14] = test system: Providencia rettgeri ATCC 9250; details: ATCC9250, agar two-fold dilution, 37° C., 20 hours
Procedure, shortened: as §1

[15] = test system: Pseudomonas aeruginosa ATCC 10145; details: ATCC10145, ATCC 10145, agar two-fold dilution, 37° C., 20 hours, read-out: MIC
Procedure, shortened: as §1

[16] = test system: Pseudomonas aeruginosa ATCC 25619; details: ATCC25619, ATCC 25619, agar two-fold dilution, 37° C., 20 hours, read-out: MIC
Procedure, shortened: as §1

[17] = test system: Pseudomonas aeruginosa ATCC 27853; details: ATCC27853, ATCC 27853, agar two-fold dilution, 37° C., 20 hours, read-out: MIC
Procedure, shortened: as §1

[18] = test system: Salmonella typhimurium ATCC 14028; details: Salmonella enterica; ATCC 14028; agar two-fold dilution, 37° C., 20 hours; read-out: MIC
Procedure, shortened: as §1

[19] = test system: Serratia marcescens ATCC 27117; details: ATCC27117, ATCC 27117, agar two-fold dilution, 37° C., 20 hours, read-out: MIC
Procedure, shortened: as §1

[20] = test system: Shigella flexneri ATCC 11836; details: ATCC11836, agar two-fold dilution, 37° C., 20 hours
Procedure, shortened: as §1

[21] = test system: Shigella sonnei ATCC 11060; details: ATCC11060, ATCC 11060, agar two-fold dilution, 37° C., 20 hours, read-out: MIC
Procedure, shortened: as §1

[22] = test system: Staphylococcus aureus ATCC 10537; details: ATCC10537, ATCC 10537, agar two-fold dilution, 37° C., 20 hours, read-out: MIC
Procedure, shortened: as §1

[23] = test system: Staphylococcus aureus ATCC 6538p; details: ATCC6538P, ATCC 6538p, agar two-fold dilution, 37° C., 20 hours, read-out: MIC
Procedure, shortened: as §1

[24] = test system: Staphylococcus epidermidis ATCC 12228; details: ATCC12228, ATCC 12228, agar two-fold dilution, 37° C., 20 hours, read-out: MIC
Procedure, shortened: as §1

[25] = test system: Streptococcus faecalis ATCC 29212; details: Enterococcus faecalis, ATCC29212; ATCC 29212; agar two-fold dilution, 37° C., 20 hours; read-out: MIC
Procedure, shortened: as §1

`C[n+]1c(N)cc(N)nc1SCC1=C(C(=O)[O-])N2C(=O)C(NC(=O)/C(=N\OC(C)(C)C(=O)O)c3nsc(N)n3)C2SC1` (stereo not shown) [Compound I-26] was tested, and the MIC [1] was 4 µg/mL (≈ 6.4 µM), the MIC [2] was > 128 µg/mL and the MIC [3] was 1 µg/mL (≈ 1.6 µM). The MIC [4] was 0.13 µg/mL (≈ 0.208 µM), the MIC [5] was 1 µg/mL (≈ 1.6 µM) and the MIC [6] was 0.031 µg/mL (≈ 0.0496 µM). It also gave an MIC [7] of 0.13 µg/mL (≈ 0.208 µM), an MIC [8] of 0.13 µg/mL (≈ 0.208 µM) and an MIC [9] of 0.13 µg/mL (≈ 0.208 µM). For the same compound, the MIC [10] was 1 µg/mL (≈ 1.6 µM), the MIC [11] was ≤ 0.008 µg/mL and the MIC [12] was 0.13 µg/mL (≈ 0.208 µM). The MIC [13] was 0.13 µg/mL (≈ 0.208 µM), the MIC [14] was ≤ 0.008 µg/mL and the MIC [15] was 2 µg/mL (≈ 3.2 µM). The MIC [16] was 2 µg/mL (≈ 3.2 µM), the MIC [17] was 2 µg/mL (≈ 3.2 µM) and the MIC [18] was 0.5 µg/mL (≈ 0.8 µM). For the same compound, the MIC [19] was 0.25 µg/mL (≈ 0.4 µM), the MIC [20] was 0.063 µg/mL (≈ 0.101 µM) and the MIC [21] was 0.13 µg/mL (≈ 0.208 µM). For the same compound, the MIC [22] was 8 µg/mL (≈ 12.8 µM), the MIC [23] was 8 µg/mL (≈ 12.8 µM) and the MIC [24] was 4 µg/mL (≈ 6.4 µM). The MIC [25] was > 128 µg/mL.
`CO/N=C(\C(=O)NC1C(=O)N2C(C(=O)[O-])=C(CSc3nc(N)cc(N)[n+]3N)CSC12)c1csc(N)n1` (stereo not shown) [Compound I-19] was tested, and the MIC [1] was 4 µg/mL (≈ 7.24 µM), the MIC [2] was 8 µg/mL (≈ 14.5 µM) and the MIC [3] was 0.13 µg/mL (≈ 0.235 µM). For the same compound, the MIC [4] was 0.13 µg/mL (≈ 0.235 µM), the MIC [5] was 0.25 µg/mL (≈ 0.452 µM) and the MIC [6] was 0.016 µg/mL (≈ 0.029 µM). The MIC [7] was 0.13 µg/mL (≈ 0.235 µM), the MIC [8] was 0.13 µg/mL (≈ 0.235 µM) and the MIC [9] was ≤ 0.008 µg/mL. For the same compound, the MIC [10] was 0.016 µg/mL (≈ 0.029 µM), the MIC [11] was 0.008 µg/mL (≈ 0.0145 µM) and the MIC [12] was 0.13 µg/mL (≈ 0.235 µM). For the same compound, the MIC [13] was 0.016 µg/mL (≈ 0.029 µM), the MIC [14] was ≤ 0.008 µg/mL and the MIC [15] was 2 µg/mL (≈ 3.62 µM). The MIC [16] was 0.5 µg/mL (≈ 0.905 µM), the MIC [17] was 1 µg/mL (≈ 1.81 µM) and the MIC [18] was 0.25 µg/mL (≈ 0.452 µM). It also gave an MIC [19] of 0.25 µg/mL (≈ 0.452 µM), an MIC [20] of 0.016 µg/mL (≈ 0.029 µM) and an MIC [21] of 0.063 µg/mL (≈ 0.114 µM). It also gave an MIC [22] of 0.5 µg/mL (≈ 0.905 µM), an MIC [23] of 0.25 µg/mL (≈ 0.452 µM) and an MIC [24] of 0.063 µg/mL (≈ 0.114 µM). For the same compound, the MIC [25] was 32 µg/mL (≈ 57.9 µM).
`CC[n+]1c(N)cc(N)nc1SCC1=C(C(=O)[O-])N2C(=O)C(NC(=O)/C(=N\OC)c3nsc(N)n3)C2SC1` (stereo not shown) [Compound I-25] gave an MIC [1] of 2 µg/mL (≈ 3.53 µM), an MIC [2] of 32 µg/mL (≈ 56.5 µM) and an MIC [3] of 0.13 µg/mL (≈ 0.229 µM). For the same compound, the MIC [4] was 0.13 µg/mL (≈ 0.229 µM), the MIC [5] was 1 µg/mL (≈ 1.76 µM) and the MIC [6] was 0.031 µg/mL (≈ 0.0547 µM). It also gave an MIC [7] of 0.13 µg/mL (≈ 0.229 µM), an MIC [8] of 0.13 µg/mL (≈ 0.229 µM) and an MIC [9] of 0.031 µg/mL (≈ 0.0547 µM). The MIC [10] was 0.031 µg/mL (≈ 0.0547 µM), the MIC [11] was 0.031 µg/mL (≈ 0.0547 µM) and the MIC [12] was 1 µg/mL (≈ 1.76 µM). The MIC [13] was 1 µg/mL (≈ 1.76 µM), the MIC [14] was 0.016 µg/mL (≈ 0.0282 µM) and the MIC [15] was 16 µg/mL (≈ 28.2 µM). It also gave an MIC [16] of 4 µg/mL (≈ 7.06 µM), an MIC [17] of 4 µg/mL (≈ 7.06 µM) and an MIC [18] of 0.25 µg/mL (≈ 0.441 µM). For the same compound, the MIC [19] was 0.25 µg/mL (≈ 0.441 µM), the MIC [20] was 0.031 µg/mL (≈ 0.0547 µM) and the MIC [21] was 0.13 µg/mL (≈ 0.229 µM). For the same compound, the MIC [22] was 0.5 µg/mL (≈ 0.882 µM), the MIC [23] was 0.5 µg/mL (≈ 0.882 µM) and the MIC [24] was 0.13 µg/mL (≈ 0.229 µM). The MIC [25] was 32 µg/mL (≈ 56.5 µM).
With `CCC[n+]1c(N)cc(N)nc1SCC1=C(C(=O)[O-])N2C(=O)C(NC(=O)/C(=N\OCC)c3nsc(N)n3)C2SC1` (stereo not shown) [Compound I-22] the MIC [1] was 4 µg/mL (≈ 6.73 µM), the MIC [2] was 16 µg/mL (≈ 26.9 µM) and the MIC [3] was 0.13 µg/mL (≈ 0.219 µM). The MIC [4] was 0.25 µg/mL (≈ 0.42 µM), the MIC [5] was 1 µg/mL (≈ 1.68 µM) and the MIC [6] was 0.031 µg/mL (≈ 0.0521 µM). It also gave an MIC [7] of 0.25 µg/mL (≈ 0.42 µM), an MIC [8] of 0.25 µg/mL (≈ 0.42 µM) and an MIC [9] of 0.016 µg/mL (≈ 0.0269 µM). For the same compound, the MIC [10] was 0.016 µg/mL (≈ 0.0269 µM), the MIC [11] was 0.031 µg/mL (≈ 0.0521 µM) and the MIC [12] was 2 µg/mL (≈ 3.36 µM). The MIC [13] was 2 µg/mL (≈ 3.36 µM), the MIC [14] was ≤ 0.008 µg/mL and the MIC [15] was 16 µg/mL (≈ 26.9 µM). For the same compound, the MIC [16] was 1 µg/mL (≈ 1.68 µM), the MIC [17] was 4 µg/mL (≈ 6.73 µM) and the MIC [18] was 2 µg/mL (≈ 3.36 µM). It also gave an MIC [19] of 0.5 µg/mL (≈ 0.841 µM), an MIC [20] of 0.13 µg/mL (≈ 0.219 µM) and an MIC [21] of 0.5 µg/mL (≈ 0.841 µM). It also gave an MIC [22] of 0.5 µg/mL (≈ 0.841 µM), an MIC [23] of 0.5 µg/mL (≈ 0.841 µM) and an MIC [24] of 0.25 µg/mL (≈ 0.42 µM). It also gave an MIC [25] of 16 µg/mL (≈ 26.9 µM).
